Measurements published in patent US9211244B2, “Method for anti-skin aging using caffeamide derivative” (CHINA MEDICAL UNIVERSITY, priority 2013, dated 2015).

Experiments:
[1] = Scavenging test of DPPH free radical; format: biochemical; details: for Scavenging efficiency (%): 200 μM DPPH, 30 minutes
Method: DPPH (1,1-diphenyl-2-picrylhydrazyl) was used as a source of free radicals to examine the scavenging efficiency of the caffeamide derivatives prepared in Example 1 on free radicals. […] The mixtures were placed in the dark at room temperature for 30 minutes and its absorbance at 517 nm was measured by an enzyme immunoassay analyzer. In this experiment, 50 volume % propanediol was used to replace extracts and to be a control group, ascorbic acid (vitamin C) was used as a positive control group, and methanol was used to replace DPPH as the background value. The scavenging efficiency of caffeamide derivatives on free radicals was examined by the formula blow, and the results are shown in Table 2, FIG. 1a, and FIG. 1b. Scavenging efficiency(%)=[the absorbance of the control group−the absorbance of the experimental group/the absorbance of the control group]×100%.

[2] = test system: human fibroblast Hs68 cells; test: Scavenging test of ROS free radicals in UVB-irradiated cells; format: cell-based; details: UVB 80 mJ/cm^2, 24 hours
Method: After incubated in an incubator (37° C., 5% CO2) for 24 hours, the ROS level was examined.

[3] = test system: p-ERK; test: Inhibition test of the phosphorylation of MAPK, western blot; format: cell-based, human; details: 10 μM; UVB 40 mJ/cm^2
Method: (§1) It has been known that the skin photo-aging caused by UV rays will increase the content of MMPs in the dermis by the phosphorylation of MAPK. In this experiment, the effect of caffeamide derivative on the phosphorylation of MAPK in the cells was analyzed by western blotting.
(§2) After being treated with the compound of formula (2) prepared in Example 1, the protein expression levels of the MAPKs induced by UVB were inhibited in a concentration dependent way. Specifically, when the concentration of the compound of formula (2) was 10 μM, the expression level of P-ERK was 1.1 times as compared to that of the untreated cells. When the concentration of the compound of formula (2) was 5 μM, the expression levels of p-JNK and p-p38 were both 1.1 times as compared to that of the untreated cells.

[4] = test system: p-JNK; test: as above; format: cell-based, human; details: 5 μM; UVB 40 mJ/cm^2
Method: as §1, §2

[5] = test system: p-p38; test: as above; format: cell-based, human; details: 5 μM; UVB 40 mJ/cm^2
Method: as §1, §2

[6] = test system: Smad3; test: Promotion test of the expression of collagen, western blot; format: cell-based, human; details: 25 μM; UVB 40 mJ/cm^2
Method: (§3) It has been known that Smad3 protein can promote the expression level of procollagen-1, and Smad7 protein can inhibit the expression level of Smad3 protein. After cells were irradiated with UV rays, the expression levels of procollagen-1 and Smad3 protein will reduce and the expression level of Smad7 protein will increase. Therefore, in this experiment, the expression levels of intracellular procollagen-1 protein, Smad3 protein and Smad7 protein were analyzed by western blotting.
(§4) Specifically, when the concentration of the compound of formula (2) was 25 μM, the protein expression level of Smad7 was 1.1 times as compared to that of the untreated cells.

[7] = test system: Smad7; test: as above; format: cell-based, human; details: 25 μM; UVB 40 mJ/cm^2
Method: as §3, §4

[8] = test system: procollagen-1; test: as above; format: cell-based, human; details: 25 μM; UVB 40 mJ/cm^2
Method: as §3, §4

[9] = test system: skin of white rabbit; test: Primary skin irritation test; format: in vivo, New Zealand white rabbit
Method: First, 20 mg (low dosage) and 80 mg or 100 mg (high dosage) of the compounds of formula (1) and formula (2) prepared in Example 1 were dissolved in 1 ml of 40% PEG-400 solution, respectively. Next, a New Zealand white rabbit was fixed on a rabbit cage and the fur on its back was clipped. A color pen was used to draw six squares (2.5 cm×2.5 cm for each square) of smearing region. The six squares were divided into keratin intact group and keratin abraded group. In the keratin abraded group, a sterile needle was used to scrape four parallel lines inside the squares on the back of the white rabbit to damage the keratin layer, but without bleeding. Low dosage and high dosage of compounds of formula (1) or formula (2) were smeared inside the squares evenly. After 24 hours, the skin of white rabbit was wiped with physiologic saline solution to remove compounds of formula (1) or formula (2). […] The observation time should be extended when the irritation was shown.
The statistical method of this test was analyzed by ANOVA (analysis of variance) and Student's t-test; p<0.05 indicates a statistical significance. Each experiment was performed over three times, and the results are shown by the standard error of the mean (mean±standard error). The results are shown in Table 7A, Table 7B, FIGS. 11a to 11d, and FIGS. 12a to 12d.

## O=C(C=Cc1ccc(O)c(O)c1)NCCc1ccc(Br)cc1 [Compound of formula (2)]
[1]; 1 μM
  Scavenging efficiency (%): 6.4 ± 4.9%
[1]; 5 μM
  Scavenging efficiency (%): 12.9 ± 3.5%
[1]; 10 μM
  Scavenging efficiency (%): 26.5 ± 0.9%
[1]; 25 μM
  Scavenging efficiency (%): 62.1 ± 2.9%
[1]; 50 μM
  Scavenging efficiency (%): 96.6 ± 0.4%
[1]; DPPH free radical scavenging, read-out: SC50 (the source's name)
  EC50: 20 ± 1 µM
[2]; 5 μM
  Concentration of ROS (times compared to the untreated cells): 1.0 ± 0.09 times
[2]; 10 μM
  Concentration of ROS (times compared to the untreated cells): 0.9 ± 0.02 times
[2]; 10 μM, listed as compound of formula (2)
  Concentration of ROS (times compared to the untreated cells): 0.9 times
[2]; 25 μM
  Concentration of ROS (times compared to the untreated cells): 0.8 ± 0.04 times
[2]; 25 μM, listed as compound of formula (2)
  Concentration of ROS (times compared to the untreated cells): 0.8 times
[3]
  expression level of p-ERK as compared to that of the untreated cells: 1.1 times
[4]
  expression level of p-JNK as compared to that of the untreated cells: 1.1 times
[5]
  expression level of p-p38 as compared to that of the untreated cells: 1.1 times
[6]
  protein expression level of Smad3 inhibited by UVB, reversed to: 0.5 times
[7]
  protein expression level of Smad7 as compared to that of the untreated cells: 1.1 times
[8]
  protein expression level of procollagen-1 decreased by UVB, reversed to: 0.4 times
[9]; 20 mg, 24 hour, abraded skin
  primary irritation index (PII), mean ± standard error: 0.0 ± 0.0
  primary irritation index (PII), single rabbits 1-3: 0
[9]; 20 mg, 24 hour, intact skin
  primary irritation index (PII), mean ± standard error: 0.0 ± 0.0
  primary irritation index (PII), single rabbits 1-3: 0
[9]; 20 mg, 72 hour, abraded skin
  primary irritation index (PII), mean ± standard error: 0.0 ± 0.0
  primary irritation index (PII), single rabbits 1-3: 0
[9]; 20 mg, 72 hour, intact skin
  primary irritation index (PII), mean ± standard error: 0.0 ± 0.0
  primary irritation index (PII), single rabbits 1-3: 0
[9]; 80 mg, 24 hour, abraded skin
  primary irritation index (PII), mean ± standard error: 0.7 ± 0.6
[9]; 80 mg, 24 hour, intact skin
  primary irritation index (PII), mean ± standard error: 0.0 ± 0.0
  primary irritation index (PII), single rabbits 1-3: 0
[9]; 80 mg, 72 hour, abraded skin
  primary irritation index (PII), mean ± standard error: 0.3 ± 0.6
[9]; 80 mg, 72 hour, intact skin
  primary irritation index (PII), mean ± standard error: 0.0 ± 0.0
  primary irritation index (PII), single rabbits 1-3: 0
